The record followed here is US20080200475A1 (Pfizer Inc., priority 2005, published 2008).

This assay deals with T1, Human P2Y12 (Homo sapiens, UniProt Q9H244).
T1 construct: expressed in transfected cells; host or cells: HEK cells (membrane preparation)
Briefly: [^33P]-2MeS-ADP Binding to Recombinant Human P2Y12 Membranes (Assay 3). The note with it: for IC50 / Ki: membranes of HEK cells transfected with P2Y12, competition with ^33P 2MeS-ADP, multiple lines = multiple runs; for inhibition at 10 µM / % Inhibition, [^33P]-2MeS-ADP Binding to Recombinant Human P2Y12 Membranes (Assay 3): highest concentration tested 10 μM. On the procedure:
3. Human P2Y12 Recombinant Cell Membrane Binding Assay with ^33P 2MeS-ADP.
The ability of a test compound to bind to the P2Y12 receptor was evaluated in a recombinant cell membrane binding assay. In this competitive binding assay, the test compound competed against a radiolabelled agonist for binding to the P2Y12 receptor, expressed on the cell membrane. Inhibition of binding of the labeled material was measured and correlated to the amount and potency of the test compound. Data from this assay are presented in Table F. This binding assay is a modification of the procedure in Takasaki, J. et. al, Mol. Pharmacol., 2001, Vol. 60, pg. 432.
HEK cells were transfected with the pDONR201P2Y12 vector and cultured in MEM with GlutaMAX I, Earle's salts, 25 mM HEPES (Gibco #42360-032) containing 10% dialyzed FBS (Gibco #26400-044), 100 μM nonessential amino acids (Gibco #11140-050), 1 mM sodium pyruvate (Gibco #11360-070), 0.05% geneticin (Gibco #10131-027), 3 μg/mL blasticidin (Fluka brand from Sigma #15205), and 0.5 μg/mL puromycin (Sigma #P-8833).
Confluent cells were washed once with cold DPBS (Gibco #14190-136). Fresh DPBS was added and the cells were scraped and centrifuged at 500×g for 5 minutes at 4° C. The cell pellets were resuspended in TEE buffer (25 mM Tris, 5 mM EDTA, 5 mM EGTA) containing 1 protease inhibitor cocktail tablet (Roche #1 873 580) per 50 mL (called TEE+Complete) and can be flash frozen at this point.
In one embodiment, frozen cell pellets were used to prepare the membranes. In that embodiment, the frozen cell pellets were thawed on ice. In another embodiment, cell pellets may be used without flash freezing before moving on to the next step.
Cell pellets were resuspended in TEE buffer+Complete and homogenized in a glass dounce for 12 strokes. The cell suspension was centrifuged at 500×g for 5 minutes at 4° C. The supernatant was saved and centrifuged at 20,000×g for 20 minutes at 4° C. This supernatant was discarded and the cell pellet resuspended in TEE buffer+Complete and homogenized in a glass dounce for 12 strokes. This suspension was centrifuged at 20,000×g for 20 minutes at 4° C. and the supernatant discarded. The pellet was resuspended in assay buffer (50 mM Tris, 100 mM NaCl, 1 mM EDTA) containing one protease inhibitor cocktail tablet per 50 mL, and can be flash frozen as 1 mL aliquots at this point.
[…] A 1 mM DMSO intermediate stock was made in a dilution plate and from this the seven dilutions were made to 5× the final concentration in assay buffer containing 0.02% BSA.
To a polypropylene assay plate (Costar #3365) the following were added: a) 30 μL of assay buffer containing one protease inhibitor cocktail tablet per 50 mL; b) 30 μL of 1 nM ^33P 2MeS-ADP made in assay buffer containing 0.02% BSA and 12.5 mg/mL ascorbic acid; 30 μL of cold 1.5 μM 2MeS-ADP for the positive control wells, or assay buffer containing 0.02% BSA and 12.5 mg/mL ascorbic acid for the negative control wells, or 5× drug dilution; and 60 μL of 1 ug/well membranes.
The plates were incubated at room temperature for 1 hour. The reaction was stopped using a cell harvester to transfer the reaction mixture onto GF/B UniFilter plates (Perkin Elmer #6005177), and washed three times with wash buffer (50 mM Tris), filtering between each wash. The filter plates were dried for approximately 20 minutes in an oven at 50° C. Back seals were adhered to the filter plates and 25 uL of Microscint 20 scintillation fluid (Perkin Elmer #6013621) were added. The filter plates were sealed, shaken for 30 minutes, and counted on a Top Count. Data were analyzed using a four-parameter curve fit with a fixed minimum and maximum experimentally defined as the average positive and negative controls on each plate, and with a hill slope equal to one. […]

Values joined by “and” are separate entries in the source; they are usually repeats but may differ in a detail not shown here. Equal values may be shown once.

For orientation: inhibition means how much of the control response was suppressed. By IC50 is commonly meant the concentration needed to halve the response being measured. Usually Ki stands for a dissociation constant, usually derived from enzyme kinetics or from competition with a known ligand.

T1 sequence (Q9H244 whole entry): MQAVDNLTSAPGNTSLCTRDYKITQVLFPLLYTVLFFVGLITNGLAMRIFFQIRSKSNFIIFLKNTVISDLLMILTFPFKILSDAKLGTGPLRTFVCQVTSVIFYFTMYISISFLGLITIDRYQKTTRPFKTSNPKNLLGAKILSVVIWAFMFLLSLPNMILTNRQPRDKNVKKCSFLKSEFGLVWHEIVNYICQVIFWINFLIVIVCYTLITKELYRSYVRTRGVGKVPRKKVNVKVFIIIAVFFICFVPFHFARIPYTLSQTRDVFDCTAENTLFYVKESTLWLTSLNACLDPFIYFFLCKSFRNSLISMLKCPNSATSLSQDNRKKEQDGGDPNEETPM

With `CCc1cc2c(N3CCN(C(=O)c4ccc(-c5ccccc5)cc4)CC3)nc(NC(=O)CCC(=O)O)nc2s1` [Example 38, N-{4-[4-(Biphenyl-4-carbonyl)piperazin-1-yl]-6-ethylthieno[2,3-d]pyrimidin-2-yl}succinamic acid], the IC50 stood at 0.013 µM and the Ki amounted to 0.008 µM. Further, under “highest concentration tested 1 μM”, the inhibition at 1 µM came out at 88%.
For `CCc1cc2c(N3CCN(C(=O)c4ccc(-c5ccccc5)cc4)CC3)nc(NC(=O)[C@@H]3CCCN3)nc2s1` [Example 39, (S)-Pyrrolidine-2-carboxylic Acid{4-[4-(Biphenyl-4-carbonyl)piperazin-1-yl]-6-ethylthieno[2,3-d]pyrimidin-2-yl}amide], the inhibition at 10 µM came to 81%, the IC50 came to 0.179 µM and the Ki amounted to 0.087 µM.
As to `CCc1cc2c(N3CCN(C(=O)c4ccc(-c5ccccc5)cc4)CC3)nc(NC(=O)[C@H]3CCCN3)nc2s1` [Example 40, (R)-Pyrrolidine-2-carboxylic acid{4-[4-(biphenyl-4-carbonyl)piperazin-1-yl]-6-ethylthieno[2,3-d]pyrimidin-2-yl}amide], the inhibition at 10 µM amounted to 75.6%, the 50% inhibitory concentration (IC50) amounted to 0.403 µM and the Ki was 0.227 µM.
Taken in the same sequence, the figures for `CCc1cc2c(N3CCN(C(=O)c4ccc(-c5ccccc5)cc4)CC3)nc(NC(=O)CN)nc2s1` [Example 41, 2-Amino-N-{4-[4-(biphenyl-4-carbonyl)piperazin-1-yl]-6-ethylthieno[2,3-d]pyrimidin-2-yl}acetamide] were 85%, 0.156 µM and 0.085 µM.
`CCOC(=O)CCNC(=O)Nc1nc(N2CCN(C(=O)CC(F)(F)F)CC2)c2cc(CC)sc2n1` [Example 46, Ethyl N-[({6-ethyl-4-[4-(3,3,3-trifluoropropanoyl)piperazin-1-yl]thieno[2,3-d]pyrimidin-2-yl}amino)carbonyl]-beta-alaninate]: the “% Inhibition, [^33P]-2MeS-ADP Binding to Recombinant Human P2Y12 Membranes (Assay 3)” value is 46.8% and 71.7%; the IC50 was 6.88 µM and 4.16 µM; the Ki was 3.82 µM and 2.3 µM.
For the compound `CCc1cc2c(N3CCN(C(=O)CC(F)(F)F)CC3)nc(NC(=O)NCCC(=O)O)nc2s1` [Example 49, N-[({6-Ethyl-4-[4-(3,3,3-trifluoropropanoyl)piperazin-1-yl]thieno[2,3-d]pyrimidin-2-yl}amino)carbonyl]-beta-alanine], the “% Inhibition, [^33P]-2MeS-ADP Binding to Recombinant Human P2Y12 Membranes (Assay 3)” value is 94.4% and 92%; the inhibition at 10 µM is 88.9%; the IC50 was 0.449 µM and 0.308 µM and 0.254 µM; the Ki was 0.234 µM and 0.168 µM and 0.14 µM.
